Results published in publication PMC5603512, “Discovery, Semisynthesis, Antiparasitic and Cytotoxic Evaluation of 14-Membered Resorcylic Acid Lactones and Their Derivatives” (Scientific Reports, 2017).
Read-outs that look alike come from different tables or passages of the source.

Legend:
Leishmania donovani = assay: Antileishmanial assay (PicoGreen); format: cell-based
Procedure: The anti-leishmania activity was evaluated following the protocol described by Calderon et al.[39], using the fluorescent DNA intercalator PicoGreen (Invitrogen, USA). The species responsible for visceral leishmaniasis, L. donovani, was used for the assays.

Plasmodium falciparum = assay: Antiplasmodial assay (PicoGreen growth inhibition in infected human erythrocytes); format: cell-based
Procedure: Activity against the causative agent of malaria was performed by culturing human erythrocytes and infecting them with P. falciparum, as described by Trager and Jensen[36]. Briefly, the W2 (Chloroquine resistant) and 3D7 (Chloroquine sensitive) strains of P. falciparum were cultured in RPMI 1640 medium (Sigma-Aldrich, USA) supplemented with 10% human serum (from O+ blood) at a hematocrit of 2% erythrocytes (O+) at 37 °C in a gas mixture of 5% CO2, 5% O2, and 90% N2. Parasites were synchronized by a temperature cycling technique as described by Almanza et al.[37]

[1] = Cytotoxicity SRB assay, HeLa; settings: human
Procedure: (§1) All of the compounds were also evaluated for their cytotoxic properties against six human cancer cell lines (lung carcinoma epithelian (A549), colon carcinoma (HCT-116), pancreatic carcinoma (BXPC-3), breast cancer (MCF-7), cervical epithelium (HeLa), and erythroleukemic (K562)) and a human umbilical vein endothelial cell (HUVEC) line (Table 2).
(§2) The cytotoxicity against HCT-116, BXPC-3, HeLa, MCF-7, A-549, and HUVEC cell lines was evaluated using the SRB method. The cytotoxicity against K562 and Vero cell lines was evaluated using the MTT method. Adriamycin was used as a positive control. All cells were cultivated in T-75 flasks containing 10% Fetal Bovine Serum (FBS), Dulbeco’s Modified Eagle Medium (DMEM) with 2 mM L-glutamine, and 1% penicillin-streptomycin at 37 °C in a humidified atmosphere with 5% CO2. For SRB assay, cells in their log phase of growth were seeded into 96 well micro plates (4 × 10^4 cells per well) and followed by treating with test samples at 10 μM or DMSO. After incubation at 37 °C for 72 h, the cells were fixed with the cold 20% (w/v) TCA for 2 h and stained with Sulforhodamine B (SRB) dye for 0.5 h. The protein-bound dye is dissolved in Tris base solution for OD determination at 540 nm on an ELISA Plate Reader. For MTT assay, cells (5 × 10^3 cells per well) were plated in 96 well micro plates. After cell attachment overnight, new medium containing test compounds or DMSO was added. The plate was incubated for 48 h at 37 °C and incubated with 3-(4,5-dimethylthiazol-2-yl)-2,5-diphenyltetrazolium bromide (MTT) for additional 2–4 hours. The assay plate was then read at 490 nm on an ELISA Plate Reader. The data were obtained from experiments carried out in triplicate.

[2] = Cytotoxicity MTT assay, K562; settings: human
Procedure: as §1, §2

[3] = Cytotoxicity SRB assay, A-549; settings: human
Procedure: as §1, §2

Trypanosoma cruzi = assay: Antitrypanosomal assay (beta-galactosidase reporter, intracellular amastigotes in Vero cells); format: cell-based; settings: for IC50: Trypanosoma cruzi; as to Trypanosoma cruzi IC50: key: I: Inactive
Procedure: Briefly, the expression of the reporter gene for beta-galactosidase (β-Gal) in the Tulahuen clone C4 of T. cruzi is assessed by colorimetry at 570 nm, which correlates with the parasite growth. Assays were performed on the intracellular amastigote form of the parasite infecting African green monkey kidney (Vero) cells, incubated for 120 h at 37 °C with 5% CO2.

[4] = Cytotoxicity SRB assay, BXPC-3; settings: human
Procedure: as §1, §2

[5] = Cytotoxicity SRB assay, HCT-116; settings: human
Procedure: as §1, §2

[6] = Cytotoxicity SRB assay, MCF-7; settings: human
Procedure: as §1, §2

[7] = Cytotoxicity SRB assay, HUVEC; settings: human
Procedure: as §1, §2

[8] = Toxicity against Vero cells (MTT); format: cell-based, African green monkey; settings: African green monkey, MTT, 48 h
Procedure: It should be emphasized that toxicity is a major concern of drug discovery and development. The above active compounds were evaluated for in vitro toxicity against a mammalian kidney cell line (Vero). The selectivity index (SI) was used as the evaluation parameter of drug potential of the test samples by comparing the toxicity on the Vero cell line (CC50) and the selective inhibitory effect on P. falciparum, L. donovani or T. cruzi (IC50) calculated here as CC50/IC50.
Adriamycin was used as a positive control.

[9] = in vitro, read-out: Leishmania donovani IC50
[10] = Tulahuen clone C4, intracellular amastigotes in Vero cells, 120 h
[11] = BXPC-3 pancreatic carcinoma cells
[12] = Erythrocyte, in vitro, W2 and 3D7 strains cultured, strain of the values not stated, read-out: Plasmodium falciparum IC50
[13] = read-out: Leishmania donovani IC50
[14] = 3D7, Erythrocyte, read-out: Plasmodium falciparum IC50
[15] = Vero cells (mammalian kidney cell line)

Row | SMILES | IC50 at 72 h ([1]; HeLa cervical epithelium cells) [µM] | IC50 at 48 h ([2]; K562 erythroleukemic cells) [µM] | IC50 (Leishmania donovani; [9]) [µM] | IC50 at 72 h ([3]; A-549 lung carcinoma cells) [µM] | Trypanosoma cruzi IC50 (Trypanosoma cruzi; [10]) | IC50 at 72 h [4, 11] [µM] | IC50 at 72 h ([5]; HCT-116 colon carcinoma cells) [µM] | IC50 (Plasmodium falciparum; [12]) [µM] | IC50 at 72 h ([6]; MCF-7 breast cancer cells) [µM] | IC50 at 72 h [1] [µM] | IC50 at 48 h [2] [µM] | IC50 at 72 h [3] [µM] | IC50 at 72 h [4] [µM] | IC50 at 72 h [5] [µM] | IC50 at 72 h [6] [µM] | CC50 at 48 h [8, 15] [µM] | other results
1 | C[C@@H]1[C@H](O)[C@@H](C)/C=C/C=C/C=C/C=C/C=C/C=C/C=C/[C@H](O[C@@H]2O[C@H](C)[C@@H](O)[C@H](N)[C@@H]2O)C[C@@H]2O[C@](O)(C[C@@H](O)C[C@@H](O)[C@H](O)CC[C@@H](O)C[C@@H](O)CC(=O)O[C@H]1C)C[C@H](O)[C@H]2C(=O)O [Amphotericin B, reference compound] | – | – | – | – | – | – | – | – | – | – | – | – | – | – | – | – | IC50 (Leishmania donovani; positive control, sentence ends with ref 40, read-out: IC50 of positive control, antileishmanial assay): 0.0763 µM
2 | CCN(CC)CCCC(C)Nc1ccnc2cc(Cl)ccc12 (stereo not drawn) [chloroquine, reference compound] | – | – | – | – | – | – | – | – | – | – | – | – | – | – | – | – | IC50 (Plasmodium falciparum; Erythrocyte, read-out: IC50 of positive control, antiplasmodial assay): 0.0329 µM
3 | CCC(=O)Oc1cc(OC)cc2c1C(=O)O[C@@H](C)C/C=C/[C@H](OC(=O)CC)[C@@H](OC(=O)CC)[C@@H](OC(=O)CC)C/C=C/2 [Compound 14] | > 10 | > 10 | > 15.7 | > 10 | I | > 10 | > 10 | > 30.7 | > 10 | – | – | – | – | – | – | – | –
4 | COc1cc(O)c2c(c1)/C=C/C[C@H]1OC(C)(C)O[C@H]1C(=O)/C=C/C[C@H](C)OC2=O [Compound 25] | – | – | > 15.7 | – | I | – | – | > 30.7 | – | > 10 | > 10 | > 10 | > 10 | > 10 | > 10 | – | IC50 at 72 h [7]: > 10 µM
5 | COc1cc(O)c2c(c1)/C=C/C[C@H](O)[C@H](O)C(=O)CCC[C@H](C)OC2=O [Compound 9] | – | – | – | – | I | – | – | – | – | > 10 | > 10 | > 10 | > 10 | > 10 | > 10 | – | CC50 at 48 h [8]: 131 µM; IC50 (Leishmania donovani; [13]): > 15.7 µM; IC50 (Plasmodium falciparum; [14]): > 30.7 µM
6 | COc1cc(O)c2c(c1)/C=C/C[C@H](O)[C@H](O)[C@@H](O)CCC[C@H](C)OC2=O [Compound 10] | – | – | – | – | I | – | – | – | – | > 10 | > 10 | > 10 | > 10 | > 10 | > 10 | – | CC50 at 48 h [8]: 274 µM; IC50 (Leishmania donovani; [13]): > 15.7 µM; IC50 (Plasmodium falciparum; [14]): > 30.7 µM
7 | COc1cc(O)c2c(c1)/C=C/C[C@H](O)[C@@H]1OC(C)(C)O[C@H]1/C=C/C[C@H](C)OC2=O [Compound 1, cochliomycin A] | > 10 | > 10 | > 15.7 | > 10 | I | > 10 | > 10 | 30.7 | > 10 | – | – | – | – | – | – | 96 | –
8 | COc1cc(O)c2c(c1Cl)/C=C/C[C@H](O)[C@H](O)[C@@H](O)/C=C/C[C@H](C)OC2=O [Compound 16] | > 10 | > 10 | > 15.7 | > 10 | I | > 10 | > 10 | > 30.7 | > 10 | – | – | – | – | – | – | 260 | –
9 | O=C(Cn1ccnc1[N+](=O)[O-])NCc1ccccc1 [benznidazole, reference compound] | – | – | – | – | – | – | – | – | – | – | – | – | – | – | – | – | IC50 (Trypanosoma cruzi; Vero, control drug, sentence ends with ref 41, read-out: IC50 of control drug, antitrypanosomal assay): 3.85 µM
10 | COc1cc2c(c(OC(=O)c3cccs3)c1)C(=O)O[C@@H](C)C/C=C/C(=O)[C@@H](OC(=O)c1cccs1)[C@@H](OC(=O)c1cccs1)C/C=C/2 [Compound 22] | – | – | 3.03 | – | – | – | – | 20.1 | – | – | – | – | – | – | – | 11.5 | IC50 (Trypanosoma cruzi; Tulahuen clone C4, intracellular amastigotes in Vero cells, 120 h, read-out: Trypanosoma cruzi IC50): 6.31 µM
